Source: patent US11207285B2, “Diabetes treatment regimens using alpha, alpha-substituted long-chain amphipathic carboxylates” (SYNDROMEX LTD., priority 2016, dated 2021)
Values joined by “and” are separate entries in the source; they are usually repeats but may differ in a detail not shown here. Equal entries are not always repeated.

Legend:
[1] = system: AMP-activated protein kinase (AMPK); assay: modulation of AMPK activity
[2] = system: Type 2 Diabetes Mellitus (T2D) patients; assay: 4-week M16αα study in T2D patients, efficacy; type: in vivo, human; conditions: for Comp ISI / HP ISI / HbA1c Day 90 - extrapolated / IR / HbA1c Day 28: after
Excerpt: Exploratory, double-blind, randomized, placebo-controlled study, to evaluate the safety, efficacy and pharmacokinetics of 4-week M16αα treatment of Type 2 Diabetes Mellitus (T2D) patients. T2D patients were either non-treated or receiving ongoing treatment with metformin alone or in combination with other standard-of-care (SoC) oral or parenteral antidiabetic drug/s. T2D patients, non-treated or treated with SoC antidiabetic drugs as outlined below, were screened for eligibility (inclusion/exclusion according to criteria detailed below), followed by being randomly allocated to receive once daily either add-on M16αα (40 mg M16αα plus 130 mg microcrystalline cellulose in gelatin capsules) or add-on placebo (130 mg microcrystalline cellulose in gelatin capsules), in addition to the SoC anti-diabetic treatment they have been receiving regularly. One patient was not under SoC anti-diabetic drug treatment. Sixteen (16) patients were randomized to M16αα treatment and 3 patients were randomized to placebo treatment. Patients randomized to M16αα treatment were dosed for 28 days with add-on M16αα in double-blinded manner, followed by 4-week recovery period using add-on placebo in a single-blinded manner. Patients randomized to placebo treatment were dosed for 28 days with add-on placebo in double-blinded manner. Cohort 1 included 6 uncontrolled T2D patients (HbA1c>7.3%), 5 treated for their hyperglycemia by metformin only (patients 101, 102, 103, 105, 106), and one naïve patient (not under SoC anti-diabetic treatment, patient 108). Cohort 2 included 6 T2D patients (HbA1c>7.3%) (patients 202, 203, 205, 206, 207, 210) treated for their hyperglycemia by a variety of SoC anti-diabetic drug/s except insulin/insulin analogs (metformin plus sulphonylurea and/or DPP4 inhibitor and/or GLP1 analog and/or SGLT2 inhibitor). Cohort 3 included 4 T2D patients (HbA1c>7.3%) treated for their hyperglycemia by basal insulin analogs and a variety of anti-diabetic drugs (metformin and/or sulphonylurea and/or DPP4 inhibitor and/or GLP1 analog and/or SGLT2 inhibitor). During the study period the subjects underwent physical examination, clinical pathology, hematology, urinalysis, lipid profile, HbA1C, continuous glucose monitoring (CGM) and an oral glucose tolerance test (OGTT) (75 g glucose; glucose, insulin, c-peptide; 0, 30, 60, 120, 180 min) prior to dosing, upon end of M16αα treatment, and following the recovery period (EOS visit). HbA1c, Continuous glucose monitoring (CGMS), OGTT (Glucose/Insulin/C-peptide), HOMA, Hepatic Insulin Sensitization Index (HP ISI), Composite insulin sensitization index (Comp ISI), Insulin resistance (IR), plasma lipid profile (Triglycerides, Cholesterol, LDL-C, VLDL-C, HDL-C, non-HDL-C, apoB), hsCRP, Fibrinogen. All measured variables and derived parameters were listed individually and tabulated by descriptive statistics. For descriptive statistics summary tables were provided giving sample size, means, standard deviations and 95% CI (Confidence Interval) or frequency with percentage according to the scale of the variable. Regarding small sample size, non-parametric methods were conducted: Differences between end of drug dosing and baseline for each efficacy parameter were analyzed using the Wilkcoxon matched-pairs signed-ranks test. Differences between M16αα-treated and placebo groups were analyzed for each efficacy parameter using the Mann-Whitney two-sample U-test. Drug: 40 mg 2,2,15,15-tetramethylhexadecane-dioic acid (M16αα) per day, in a gelatin capsule. This daily dose of M16αα is based on safety and PK considerations in a previous, single-dose study in healthy volunteers and pre-clinical data. Administration: oral, before breakfast, with 240 ml water, for both drug and placebo. M16αα or placebo were administered orally for 28 consecutive days, followed by additional 28 days of placebo. End of Study (EOS) visit took place about 4 weeks after last dose of M16αα administered. […]

[3] = system: mitochondrial permeability transition pore (PTP); assay: gating of mitochondrial PTP; conditions: mild decoupling of mitochondrial oxidative phosphorylation
[4] = system: Sterol response element binding protein 1 & 2 (SREBP); assay: transcriptional activity of SREBP
[5] = system: C57BL/KsJ (db/db) Spontaneous T2D mice; assay: glucose lowering effect in db/db mice; type: in vivo; conditions: once daily oral 30 mg/kg
Experimental: In addition, the glucose lowering effect of the above three compounds M16αα, M18αα and M20αα was tested in C57BL/KsJ (db/db) Spontaneous T2D mice, which serve as a model for T2D. These animals are characterized by hyperphagia, obesity, hyperglycemia and insulin resistance. The mice were treated once daily by oral administration of the tested compound at 30 mg/kg.

half-life in rats = conditions: rat, in vivo, read-out: half-life (T1/2) (converted)
Excerpt: The half-life (T1/2) of Medica compounds in humans differs considerably from their half-life in model animals. […] This difference in half-life could not be expected, and is of considerable significance when designing a new treatment protocol for humans.

[6] = Cohort 1 single patients 101, 102, 106 on metformin only, add-on 40 mg/day
[7] = Cohort 2 single patients 202, 205, 206 on SoC drugs except insulin, add-on 40 mg/day
[8] = Cohort 3 single patients 301-304 on basal insulin analogs and other drugs, add-on 40 mg/day
[9] = patient 108, no ongoing anti-diabetic treatment, 40 mg/day
[10] = baseline 1.0, all patients on add-on M16αα
[11] = estimated by linear extrapolation from 28 d
[12] = weighted average, all patients on add-on M16αα

Q: With `CC(C)(CCCCCCCCCCCCC(C)(C)C(=O)O)C(=O)O` [M16αα, 2,2,15,15-tetramethyl-hexadecane-1,16-dioic acid] as the compound, how does the AMPK activity [1] read?
A: activating

Q: What about the “Continuous glucose monitoring [CGM(<180 mg %)], Change in Baseline: Increase by” value ([2]; % of time with glucose lower than 180 mg %, baseline 71 ± 25%) of the same compound?
A: Increase by 8.4%

Q: And the “insulin sensitizing activity compared with add-on pioglitazone” value ([2]; M16αα added-on to metformin)?
A: surpasses that reported for add-on Pio

Q: And the diabetic profile ([2]; T2D patient not under anti-diabetic SoC, low dose)?
A: significantly improved diabetic profile

Q: And the “prospective glucose-lowering activity compared with SoC oral anti-diabetic drugs” value ([2]; add-on M16αα)?
A: surpasses those reported for current SoC oral anti-diabetic drugs

Q: And the “Comp ISI” value [2, 6]?
A: 19.17 and 5.0 and 10.10

Q: And the “HP ISI” value [2, 6]?
A: 9.5 and 2.3 and 2.1

Q: And the “HbA1c Day 90 - extrapolated” value [2, 6]?
A: 5.3 and 5.9 and 5.4

Q: And the IR [2, 6]?
A: 0.4 and 0.6 and 0.5

Q: What about the “HbA1c Day 28” value ([2]; Cohort 1 single patients 101, 102, 106 on metformin only, add-on 40 mg/day oral 28 d) of the same compound?
A: 6.7 and 6.9 and 6.8

Q: And the “Comp ISI” value [2, 7]?
A: 2.2 and 4.7 and 5.5

Q: And the “HP ISI” value [2, 7]?
A: 0.4 and 0.6 and 1.1

Q: What about the “HbA1c Day 90 - extrapolated” value [2, 7] of the same compound?
A: 6.0 and 8.1 and 4.1

Q: What about the IR [2, 7] of the same compound?
A: 2.2 and 1.8 and 0.9

Q: What about the “HbA1c Day 28” value ([2]; Cohort 2 single patients 202, 205, 206 on SoC drugs except insulin, add-on 40 mg/day oral 28 d) of the same compound?
A: 6.8 and 8.1 and 7.1

Q: What about the “Comp ISI” value [2, 8] of the same compound?
A: 4.6 and 6.9 and 6.3

Q: And the “HP ISI” value [2, 8]?
A: 0.79 and 0.88 and 1.33 and 1.41

Q: What about the IR [2, 8] of the same compound?
A: 1.4 and 1.1 and 0.8 and 0.7

Q: What about the “HbA1c Day 28” value ([2]; Cohort 3 single patients 301-304 on basal insulin analogs and other drugs, add-on 40 mg/day oral 28 d) of the same compound?
A: 8.17 and 7.33 and 7.52 and 8.73

Q: And the “Comp ISI” value [2, 9]?
A: 5.8

Q: What about the “HP ISI” value [2, 9] of the same compound?
A: 1.6

Q: What about the “HbA1c Day 90 - extrapolated” value [2, 9] of the same compound?
A: 7.6

Q: What about the IR [2, 9] of the same compound?
A: 0.6

Q: And the “HbA1c Day 28” value ([2]; patient 108, no ongoing anti-diabetic treatment, 40 mg/day oral 28 d)?
A: 7.6

Q: What about the “Composite insulin sensitization index (CompISI), Change in Baseline: Increase by” value [2, 10] of the same compound?
A: Increase by 2.04-fold

Q: And the “HOMA insulin resistance (HOMAIR), Change in Baseline: Increase by” value [2, 10]?
A: Increase by 0.59-fold

Q: And the “Hepatic insulin sensitization index (HepISI), Change in Baseline: Increase by” value [2, 10]?
A: Increase by 2.50-fold

Q: What about the “HOMA % B, Change in Baseline: Decrease by” value ([2]; baseline 1.0, beta-cell rest) of the same compound?
A: Decrease by 0.81-fold

Q: What about the “Bodyweight, Change in Baseline: Decrease by” value ([2]; baseline 88 ± 9 kg) of the same compound?
A: Decrease by 0.6 kg

Q: What about the “Σglucose (OGTT 0, 30, 60, 120, 180 min), Change in Baseline: Decrease by” value ([2]; baseline 100, all patients on add-on M16αα) of the same compound?
A: Decrease by 7.8%

Q: And the “Σc-peptide (OGTT 0, 30, 60, 120, 180 min), Change in Baseline: Decrease by” value ([2]; baseline 100, beta-cell rest)?
A: Decrease by 17%

Q: And the “Hypertension, Change in Baseline” value ([2]; baseline 136 ± 13/75 ± 7)?
A: Decrease in 5 patients

Q: What about the “Fasting blood glucose (FBG), Change in Baseline: Decrease by” value ([2]; baseline 159 ± 56 mg/dL, all patients on add-on M16αα) of the same compound?
A: Decrease by 11.7%

Q: What about the “Plasma triglycerides, Change in Baseline: Decrease by” value ([2]; baseline 169 ± 95 mg/dL) of the same compound?
A: Decrease by 18%

Q: What about the “HbA1C (%) (Estimated 90 d), Change in Baseline: Decrease by” value [2, 11] of the same compound?
A: Decrease by 0.96-1.44%

Q: And the “HbA1C (Estimated 90 d), Change in Baseline: Decrease” value [2, 11]?
A: (10.6-15.8 mmol/mol)

Q: What about the “HbA1C (Estimated 90 d), Change in Baseline: Decrease as eAG” value [2, 11] of the same compound?
A: (eAG 28-42 mg/dL)

Q: What about the “effectiveness as add-on drug” value ([2]; patients under anti-diabetic SoC) of the same compound?
A: effective as an add-on drug

Q: What about the “HbA1C (28 d), Change in Baseline: Decrease” value [2, 12] of the same compound?
A: (5.28 mmol/mol)

Q: And the “HbA1C (28 d), Change in Baseline: Decrease as eAG” value [2, 12]?
A: (eAG 14 mg/dL)

Q: And the “HbA1C (%) (28 d), Change in Baseline: Decrease by” value ([2]; weighted average, all patients on add-on M16αα 40 mg/day, baseline 7.96 ± 0.81)?
A: Decrease by 0.48%

Q: What about the “gating of mitochondrial PTP” value [3] of the same compound?
A: induces low-conductance gating of mitochondrial PTP

Q: What about the “transcriptional activity of SREBP” value [4] of the same compound?
A: suppressing

Q: What about the blood glucose levels [5] of the same compound?
A: significantly decrease

Q: What about the serum insulin levels [5] of the same compound?
A: significantly decrease

Q: What about the serum triglyceride levels [5] of the same compound?
A: significantly decrease

Q: And the half-life (half-life in rats)?
A: 2.4 ± 0.6 h
